Experimental data as given in patent US6682740B1 (Yeda Research and Development Co. Ltd., priority 1997, dated 2004).
Blank lines part the entries; values can stand above or below the molecule they belong to. Residues, ends and D or L forms follow the SMILES beside them. No end group written: not given here.

Assays:
[1] = molecular target: T1, FcεRI molecules on RBL-2H3 cells (Rattus norvegicus, UniProt P12371+P13386); assay: Homo-FRET between FITC-IgE and TRITC-IgE on RBL-2H3 cells (flow cytometry); format: cell-based; details: dE = (E/E[control] − 1) × 100; for dE % (Dose 1): Dose 1: C3a 30 μM, C3a2 110 μM, C3a5 110 μM, C3a9 290 μM, C3a14-P 250 μM; for dE % (Dose 2): Dose 2: C3a 70 μM, C3a2 270 μM, C3a5 270 μM, C3a9 670 μM, C3a14-P 630 μM
T1 construct: targeting FcεRI molecules on RBL-2H3 cells; endogenous in cells; host or cells: RBL-2H3
T1 sequence (P12371 24-245): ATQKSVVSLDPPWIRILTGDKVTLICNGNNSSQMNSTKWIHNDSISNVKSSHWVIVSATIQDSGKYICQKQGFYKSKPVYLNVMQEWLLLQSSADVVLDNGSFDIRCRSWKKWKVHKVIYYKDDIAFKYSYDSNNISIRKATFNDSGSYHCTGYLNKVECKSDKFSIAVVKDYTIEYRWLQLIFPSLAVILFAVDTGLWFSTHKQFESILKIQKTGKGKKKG
T1 sequence (P13386 1-243): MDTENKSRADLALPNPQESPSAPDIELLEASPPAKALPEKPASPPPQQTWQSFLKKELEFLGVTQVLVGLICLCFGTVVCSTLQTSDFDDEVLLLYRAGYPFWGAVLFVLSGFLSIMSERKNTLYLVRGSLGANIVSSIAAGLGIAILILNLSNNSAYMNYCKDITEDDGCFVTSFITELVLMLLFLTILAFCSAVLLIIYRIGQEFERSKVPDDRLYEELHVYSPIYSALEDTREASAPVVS
T1 sequence (P20411 19-86 partner): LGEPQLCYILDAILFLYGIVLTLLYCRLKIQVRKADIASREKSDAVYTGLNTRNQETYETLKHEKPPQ
Protocol: The Forster-type resonance energy transfer between FITC-IgE and TRITC-IgE targeting FcεRI molecules on RBL-2H3 cells was measured (at 1:1 donor-acceptor ratio) by flow cytometry using a BectonDickinson FACStar Plus flow cytometer.

[2] = test system: Ovalbumin-Sensitized Guinea Pig Model; assay: Anaphylactic shock in ovalbumin-sensitized guinea pig model (death, respiratory parameters); format: in vivo; details: except for transient changes in respiratory parameters
[3] = test system: RBL-2H3 cells; assay: Binding of FITC-labeled C3a14-P to RBL-2H3 cells; parameters: species or system rat; details: for binding to RBL-2H3 cells: various concentrations, measured after washing / flow cytometry
Protocol: (§1) This supports proximity between the FcεR (IgE receptor) and the peptide.
RBL-2H3 cells were incubated with the peptide at various concentrations and binding was measured after washing the cells.

[4] = test system: BMMC; assay: Binding of FITC-labeled C3a14-P to BMMC (flow cytometry); parameters: species or system mouse; details: results not shown
Text: as §1

[5] = test system: IgE-TRITC on RBL-2H3 cells; assay: FRET between C3a14-P-FITC and IgE-TRITC on RBL-2H3 cells; format: binding, rat
[6] = test system: RBL-2H3 cells; assay: Inhibition of antigen-induced (IgE-mediated) β-hexosaminidase secretion by RBL-2H3 cells; format: cell-based, rat; details: for inhibition of antigen-induced / IgE-dependent degranulation (β-hexosaminidase release): RBL-2H3 cells, result in words
Protocol: Cells. Rat mucosal mast cells, subline RBL-2H3 (Barsumian et al, 1981) were maintained in Eagle's MEM with Earle's salts supplemented by 10% FCS, 2 mM glutamine and antibiotics in a humidified atmosphere with 7% CO2 at 37° C. Secretory Response of Mast Cells. Mediator secretion by mast cells in response to stimulation by FcεRI clustering was monitored by measuring the activity of the granular enzyme β-hexosaminidase. DNP-specific murine IgE mAb, A2 (3 μl ascites) was added to 10^6 cells in 10 ml MEM and incubated in 96-well plates (100 μl suspension/well) for 2 h. Then, monolayers were washed three times with Tyrode's buffer and stimulated with the antigen (DNP11-BSA). […] Following incubation at 37° C. for 1 h, 20 μl of supernatants were taken and incubated with 50 μl of substrate solution (1.3 mg/ml p-nitrophenyl-N-acetyl-β-D-glucosamine in 0.1 M sodium citrate, pH 4.5) at 37° C. for 45 min. The reaction was terminated by the addition of 150 μl of 0.2 M glycine, pH 10.7, and the optical density of the samples was measured at 405 nm. Results of one representative experiment out of four yielding similar results are presented as percent of the total cell content of the enzyme minus the basal secreted activity. […] Degranulation of the cells was monitored by measuring the activity of the enzyme β-hexosaminidase released into the supernatants after stimulation for 1 h at 37° C. and are presented as net percentages of the cells' total β-hexosaminidase activity.

[7] = test system: RBL-2H3 cells; details: earlier experiments, cited from earlier work
[8] = molecular target: RBL-2H3 cells (rat mucosal mast cells), binding partner on the cell surface not identified; assay: fluorescence of washed RBL-2H3 cells, peptide dose 250 µM
[9] = molecular target: RBL-2H3 cells (rat mucosal mast cells), binding partner on the cell surface not identified; assay: fluorescence of washed RBL-2H3 cells, peptide dose 510 µM
[10] = molecular target: RBL-2H3 cells (rat mucosal mast cells), binding partner on the cell surface not identified; assay: fluorescence of washed RBL-2H3 cells, peptide dose 630 µM

Molecule: C3a14-P-FITC: FITC-labeled peptide C3a14-P (DSSNYITR; also: FITC label, position not given here)
Fluorescence Mean (w/o background) ([3]; peptide dose 250 μM): 25
Fluorescence Mean (w/o background) ([3]; peptide dose 510 μM): 74
Fluorescence Mean (w/o background) ([3]; peptide dose 630 μM): 157
binding to RBL-2H3 cells ([3]; listed as FITC-15 labeled C3a14-P): showed binding
binding to RBL-2H3 cells ([3]; listed as FITC-Labeled C3a14-P): specific binding, but no saturation is reached
binding to BMMC [4]: showed binding
FRET Efficiency E (%) ([5]; cells incubated with amount 20 of C3a14-P-FITC (unit not given)): 33%
FRET Efficiency E (%) ([5]; cells incubated with amount 40 of C3a14-P-FITC (unit not given)): 17%
FRET Efficiency E (%) ([5]; cells incubated with amount 60 of C3a14-P-FITC (unit not given)): 9%

Molecule: CNYITELRRQHARASHLGLAR [C3a2]
inhibition of antigen-induced / IgE-dependent degranulation (β-hexosaminidase release) [6]: inhibited in a dose-dependent manner
secretory response when only the peptide was added ([6]; peptide alone, same range of concentrations, no antigen): No secretory response
dE % (Dose 1) [1]: −101%
dE % (Dose 2) [1]: −130%

Molecule: Cys-Cys-Asn-Tyr-Gly (CCNYG; not fully specified; printed: Cys-Cys-Asn-Tyr-Gly) [C3a13]
inhibition of antigen-induced / IgE-dependent degranulation (β-hexosaminidase release) [6]: inhibit IgE-dependent degranulation of RBL-2H3 cells to a similar extent as did C3a2

Molecule: DSSNYIR [C3a11, Asp-Ser-Ser-Asn-Tyr-Ile-Arg]
inhibition of antigen-induced / IgE-dependent degranulation (β-hexosaminidase release) [6]: inhibit IgE-dependent degranulation of RBL-2H3 cells to a similar extent as did C3a2

Molecule: SVQLTEKRMDKVGKYPKELR [C3a1, reference compound]
inhibition of antigen-induced / IgE-dependent degranulation (β-hexosaminidase release) [6]: had no effect at all

B1: C5a: complement-derived peptide C5a (protein, UniProt P01031 678-751, looked up)
C5a anaphylatoxin: TLQKKIEEIAAKYKHSVVKKCCYDGACVNNDETCEQRAARISLGPRCIKAFTECCVVASQLRANISHKDMQLGR
modifications: C5a anaphylatoxin
secretory response when added alone ([7]; peptide alone (Erdei et al, 1995)): none of the complement-peptides C3a and C5a triggered the secretory response
inhibition of antigen-induced degranulation of RBL-2H3 ([7]; range of human C3a concentrations (Erdei et al, 1995)): had no effect at all

More lines, main results first:

dE % (Dose 1) [1]: −64%
dE % (Dose 2) [1]: −67%
Molecule: CC[C@H](C)[C@H](NC(=O)[C@H](Cc1ccc(O)cc1)NC(=O)[C@H](CC(N)=O)NC(=O)[C@H](CS)NC(=O)[C@H](CS)NC(=O)[C@@H](N)CC(=O)O)C(=O)N[C@H](C(=O)N[C@@H](CCCNC(=N)N)C(N)=O)[C@@H](C)O [C3a9] (H-DCCNYITR-NH2)
effect of the C3a9 aerosol treatment itself on GPs (respiratory parameters) [2]: not affected by the treatment

dE % (Dose 1) [1]: −72%
dE % (Dose 2) [1]: −97%
Molecule: DSSNYITR [C3a14-P]

dE % (Dose 1) [1]: −65%
dE % (Dose 2) [1]: −78%
Molecule: KKVFLDCCNYITELRRQHAR [C3a5]

Fluorescence Mean (w/o background) [8]: 25
Fluorescence Mean (w/o background) [9]: 74
Fluorescence Mean (w/o background) [10]: 157
Molecule: DSSNYITR-NH2 (also: FITC-labeled, position of label not given here) [FITC-labeled C3a14-P]
